# Where “and” joins values, the source holds several entries; their conditions need not be identical. Equal entries are not always repeated. Where two headings read alike, the source gives them in different places.
# Legend:
# [1] = system: Hh signaling (Gli1 mRNA) in C3H10T1/2 cells; assay: Down-regulation of endogenous Gli1 mRNA in Hh-dependent C3H10T1/2 cells; type: cell-based, mouse; conditions: Mus musculus
# In short: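 Hh pathway activated in C3H10T1/2 cells with exogenous agonist (recombinant Hh ligand or small molecule) alongside inhibitor; Gli1 mRNA measured by qPCR. Concentration-dependent Gli1 reduction also assessed in murine BCC ASZ cells; values mean±SEM, ≥2 experiments in triplicate.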
# BCRP = biological target: T1, BCRP (Homo sapiens, UniProt Q9UNQ0); conditions: read-out: IC50 BCRP inhibition; cited from earlier work
# T1 construct: expressed in transfected cells; host or cells: Madin Darby canine kidney cells (MDCK)
# T1 sequence (Q9UNQ0 1-655): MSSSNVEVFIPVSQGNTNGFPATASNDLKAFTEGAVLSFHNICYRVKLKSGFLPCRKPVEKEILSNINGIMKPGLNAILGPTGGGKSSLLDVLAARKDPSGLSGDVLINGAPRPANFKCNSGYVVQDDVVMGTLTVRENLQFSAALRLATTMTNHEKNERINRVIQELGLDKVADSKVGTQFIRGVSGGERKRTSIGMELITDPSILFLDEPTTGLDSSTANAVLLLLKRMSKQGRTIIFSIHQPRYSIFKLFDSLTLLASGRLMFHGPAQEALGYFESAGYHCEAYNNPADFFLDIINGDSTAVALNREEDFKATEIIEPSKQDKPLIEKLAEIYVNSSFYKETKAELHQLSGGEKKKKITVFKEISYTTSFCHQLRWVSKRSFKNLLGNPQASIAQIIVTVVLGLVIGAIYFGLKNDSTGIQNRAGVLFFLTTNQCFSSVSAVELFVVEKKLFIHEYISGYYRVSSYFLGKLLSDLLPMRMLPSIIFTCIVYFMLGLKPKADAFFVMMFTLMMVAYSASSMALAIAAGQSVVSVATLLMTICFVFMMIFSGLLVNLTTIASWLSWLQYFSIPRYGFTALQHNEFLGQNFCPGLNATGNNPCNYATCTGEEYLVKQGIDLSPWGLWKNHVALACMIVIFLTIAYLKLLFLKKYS
# [2] = system: Hh signaling (Gli1 mRNA) in MERP MB cells; assay: Down-regulation of Gli1 mRNA in MERP MB cells; type: cell-based, mice; conditions: Mus musculus; 48 hr incubation
# Procedure: (§1) General Information. Protocols for general cell culture, qPCR and Hh inhibition in C3H10T1/2 and ASZ cells are as previously described.^28 Protocols for the initiation and growth of Math1-Cre-ER; Ptc^fl/fl medulloblastoma tumors, isolation and in vitro culture of MERP MB cells, as wells as the anti-proliferation and qPCR studies performed in these cells were as previously described.^a Sonic Hedgehog (C25II) recombinant mouse protein was purchased from Life Technologies. aData was analyzed using GraphPad Prism 5 and reported values represent mean±SEM for at least two separate experiments performed in triplicate.
# Gli1 in M2s = assay: Down-regulation of Gli1 in M2s; type: cell-based
# From the text: Additional analogues have been synthesized and characterized in the assays described above.
# [3] = system: hedgehog (Hh) signaling pathway; conditions: background; cited from earlier work
# [4] = system: MERP MB cells (Math1-Cre-ER; Ptc fl/fl medulloblastoma); assay: Anti-proliferation in primary MERP MB cells; type: cell-based, mice; conditions: Mus musculus, 48 h, read-out: GI50 (μM) MERP MB, 48 hr incubation
# Procedure: as §1
# In this well-studied model system for evaluating small molecule inhibition of Hh signaling, addition of an exogenous Hh agonist (recombinant Hh ligand or small molecule) results in a characteristic increase in Gli1 mRNA expression. Concomitant incubation with a pathway inhibitor reduces Gli1 expression. […] In addition, several compounds were evaluated for their anti-proliferative effects in primary Hh-dependent medulloblastoma cells isolated from conditional patched knockout (Math1-Cre-ER; Ptc^fl/fl, MERP) mice. […] Finally, each of these analogues was evaluated for its ability to inhibit proliferation in human umbilical vein […] cells (HUVECs). In vivo angiogenesis is dependent on endothelial cell proliferation; therefore, the inhibition of HUVEC proliferation is commonly utilized as an early stage in vitro model of anti-angiogenic activity.
# HUVEC = HUVEC proliferation (MTS); type: cell-based, human; conditions: Homo sapiens, HUVEC
# In short: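 HUVECs seeded at 3,000 cells/well, attached overnight, then treated with varying drug concentrations. Proliferation read by MTS/PMS after 72 h.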
# [5] = C3H 10T1/2, read-out: Hh inhibition
compound,measurement,setting,value
"CCC(C)n1ncn(-c2ccc(N3CCN(c4ccc(OCC5COC(Cn6cncn6)(c6ccc(Cl)cc6Cl)O5)cc4)CC3)cc2)c1=O (stereo not drawn) [ITZ, itraconazole, reference compound]",IC50,"[1]; C3H 10T1/2, 24 h, read-out: IC50 (μM) C3H10T1/2, 24 hr incubation",0.074 µM
same,inhibition at 1 µM,"[1]; C3H 10T1/2, read-out: % Hh inhibition",96%
same,inhibition at 0.5 µM,[1]; [5],~70%
same,inhibition at 1 µM,[1]; [5],~98%
same,IC50,"[1]; C3H 10T1/2, read-out: Hh pathway inhibition C3H10T1/2, down-regulation of endogenous Gli1 mRNA",0.074 ± 0.02 µM
same,IC50,"[1]; C3H 10T1/2, read-out: IC50 (μM) Gli1-C3Hs",0.07 ± 0.02 µM
same,IC50,"[1]; C3H 10T1/2, read-out: IC50 down-regulation of Gli1, C3H10T1/2 cells",0.074 µM
same,IC50,BCRP,~1000 nM
same,IC50,[2],0.39 ± 0.06 µM
same,IC50,Gli1 in M2s,0.3 µM and 0.52 µM
same,IC50,[3],690 nM
same,GI50,[4],0.44 ± 0.08 µM
same,GI50,"HUVEC; 72 h, read-out: GI50 (μM) HUVEC, 72 h",0.4 ± 0.03 µM
same,GI50,HUVEC; read-out: GI50 HUVEC proliferation,0.45 µM
same,IC50,HUVEC; read-out: HUVEC Anti-proliferation,450 ± 140 nM

# Reference: patent publication US9650365B2 (UNIVERSITY OF CONNECTICUT, priority 2014, dated 2017)
